From patent publication US20240360122A1, “POLYMORPHIC FORMS AND SALTS OF A GLP-1R AGONIST” (Terns (Suzhou) Biotechnology Co., Ltd., priority 2023, published 2024)
≈ marks a conversion by molar mass, not a printed value. Entries after “also recorded” stand apart in the source; their conditions may differ. Structures can show the parent of a compound that is named as a salt.

Assays:
Format in all cases: physicochemical
[1] = Chemical stability studies of Compound 1 meglumine salt at high temperatures; conditions: solution and solid states
[2] = pH solubility in pH 1.0-8.0 buffers at RT; conditions: thermodynamic from solid; for solubility at 24 h: LOQ = 0.0001 mg/mL; for solubility: pH buffers, 2 and 24 hours
Description: The procedures were listed below:
1. […] Add 2 ml, of the corresponding medium.
2. Mixed well and stirred at RT (1000 rpm). Check the pH and adjust it back to the target pH after dosing.
3. Sampled after 2 hours and 24 hours. The supernatant was isolated by centrifugation (12000 rpm, 5 min) and filtration (0.22 μm, PTFE) for pH and HPLC test.

[3] = Slurry competition among Freeform Type A/C/M; conditions: slurry competition in EtOAc and ACN, RT and 50° C.
Description: The detailed procedures are as following:
1. […] Add 1 mL corresponding solvent.
2. Magnetically stirred at RT or 50° C. for 4 hours. Filter through 0.45 μm PTFE filter to obtain clear solution.
4. Magnetically stirred at RT or 50° C. for 4 days. Tested XRPD of the wet cake.

[4] = Hygroscopicity by DVS at 25° C.
Description: DVS was measured via a SMS (Surface Measurement Systems) DVS Intrinsic. The relative humidity at 25° C. were calibrated against deliquescence point of LiCl, Mg(NO3)2 and KCl.

[5] = Solid state stability at 25° C./60% RH and 40° C./75% RH for 1 week
Description: Each sample was added into a glass vial, sealed by parafilm with several holes, and kept under tested conditions. After one week, samples were taken for XRPD and HPLC purity test.

[6] = Kinetic solubility in water and bio-relevant media (SGF, FaSSIF, FeSSIF) at 37° C.; conditions: for S: Solubility: calculated by freeform; for FC: Form change: residual solids by XRPD
Description: Add 4 mL of medium (H2O, SGF, FaSSIF and FeSSIF). • Rolled at 37° C. (˜25 rpm). Sampling at 1, 2, 4 and 24 hrs. • At each time-point, sampled 0.8 mL of solution or suspension into a centrifuge tube prior to centrifugation (12000 rpm, 37° C., 5 min) and filtration through 0.45 μm PTFE membrane. • Tested pH and concentration for the filtrate. Analyze residual solids by XRPD.
0.1 g of NaCl and 0.05 g of Triton X-100 were weighed into a 50-mL volumetric flask. Purified water was added to dissolve the solid. 67.5 μL HCl (38%, 12M) was added after the solid was dissolved completely. pH was then adjusted to 1.8 using HCl (1 M) or NaOH (1 M). Purified water was added to the volume.
(§1) 0.17 g of anhydrous NaH2PO4, 0.021 g of NaOH and 0.31 g of NaCl were weighed into a 50-mL volumetric flask. ˜48 mL purified water was added to dissolve the solid. pH was adjusted to 6.5 using 1M HCl or 1M NaOH. Purified water was then added to the volume. 0.11 g of SIF powder was added into the volumetric flask.
as §1, with “0.41 mL” for “0.17 g”, “acetic acid, 0.20” for “anhydrous NaH2PO4, 0.021”, “0.59” for “0.31”, “5.0” for “6.5”, “0.56” for “0.11”

**Q.** Which chemical stability [1] does the source give for `N#Cc1ccc(COc2cccc(C3CCN(Cc4nc5ccc(C(=O)O)cc5n4Cc4cncs4)CC3)n2)c(F)c1` [Compound 1 meglumine salt] here?
**A.** generally stable

**Q.** For `N#Cc1ccc(COc2cccc(C3CCN(Cc4nc5ccc(C(=O)O)cc5n4Cc4cncs4)CC3)n2)c(F)c1` [Freeform Type C], which solubility at 24 h ([2]; pH 1.0 buffer, pH 1, aqueous buffer) is on record?
**A.** 130 µg/mL (≈ 223 µM)

**Q.** What about the solubility at 24 h ([2]; pH 2.0 buffer, pH 2, aqueous buffer) of the same molecule?
**A.** 17 µg/mL (≈ 29.2 µM)

**Q.** And the solubility ([2]; pH 1, aqueous buffer, pH 1.0 buffer)?
**A.** ≥ 130 µg/mL

**Q.** What about the solubility ([2]; pH 2, aqueous buffer, pH 2.0˜8.0 buffers) of the same molecule?
**A.** ≤ 34 µg/mL

**Q.** What about the “thermodynamic stability relationship among freeform anhydrates” value [3] of the same molecule?
**A.** thermodynamically more stable anhydrate; also recorded: thermodynamically more stable form

**Q.** And the “water uptake (DVS)” value ([4]; 25° C./80% RH)?
**A.** 0.12%

**Q.** And the hygroscopicity ([4]; DVS, 25° C.)?
**A.** non-hygroscopic

**Q.** What about the “Water uptake at 25° C./80% RH” value ([4]; DVS, 25° C./80% RH) of the same molecule?
**A.** 0.12 wt %

**Q.** And the “For change after DVS” value ([4]; XRPD after DVS test)?
**A.** No

**Q.** What about the “form change after DVS test (XRPD)” value ([4]; after DVS test) of the same molecule?
**A.** no form change

**Q.** What about the Form change ([5]; 25° C./60% RH/Open/1 week) of the same molecule?
**A.** No

**Q.** And the Purity ([5]; 25° C./60% RH/Open/1 week)?
**A.** 96.58 Area %

**Q.** What about the “solid-state stability: form change and purity decrease” value ([5]; 25° C./60% RH/open and 40° C./75% RH/open, 1 week) of the same molecule?
**A.** no form change or significant purity decrease

**Q.** And the Form change ([5]; 40° C./75% RH/Open/1 week)?
**A.** No

**Q.** And the Purity ([5]; 40° C./75% RH/Open/1 week)?
**A.** 96.69 Area %

**Q.** What about the Purity ([5]; Initial) of the same molecule?
**A.** 96.59 Area %

**Q.** And the “S: Solubility” value ([6]; FaSSIF, 37° C., 1 hr)?
**A.** 2 µg/mL

**Q.** And the “FC: Form change” value ([6]; FaSSIF, 37° C., 1 hr)?
**A.** No

**Q.** What about the “S: Solubility” value ([6]; FaSSIF, 37° C., 2 hrs) of the same molecule?
**A.** 7 µg/mL

**Q.** And the “FC: Form change” value ([6]; FaSSIF, 37° C., 2 hrs)?
**A.** No

**Q.** What about the “S: Solubility” value ([6]; FaSSIF, 37° C., 4 hrs) of the same molecule?
**A.** 5 µg/mL

**Q.** And the “FC: Form change” value ([6]; FaSSIF, 37° C., 4 hrs)?
**A.** No

**Q.** And the “S: Solubility” value ([6]; FaSSIF, 37° C., 24 hrs)?
**A.** 3 µg/mL

**Q.** What about the “FC: Form change” value ([6]; FaSSIF, 37° C., 24 hrs) of the same molecule?
**A.** No

**Q.** And the “FC: Form change” value ([6]; FeSSIF, 37° C., 1 hr)?
**A.** No

**Q.** And the “FC: Form change” value ([6]; FeSSIF, 37° C., 2 hrs)?
**A.** No

**Q.** What about the “FC: Form change” value ([6]; FeSSIF, 37° C., 4 hrs) of the same molecule?
**A.** No

**Q.** And the “S: Solubility” value ([6]; FeSSIF, 37° C., 24 hrs)?
**A.** 8 µg/mL

**Q.** And the “FC: Form change” value ([6]; FeSSIF, 37° C., 24 hrs)?
**A.** No

**Q.** What about the “S: Solubility” value ([6]; H2O, 37° C., 1 hr) of the same molecule?
**A.** 20 µg/mL

**Q.** What about the “FC: Form change” value ([6]; H2O, 37° C., 1 hr) of the same molecule?
**A.** No

**Q.** What about the “S: Solubility” value ([6]; H2O, 37° C., 2 hrs) of the same molecule?
**A.** 27 µg/mL

**Q.** And the “FC: Form change” value ([6]; H2O, 37° C., 2 hrs)?
**A.** No

**Q.** And the “S: Solubility” value ([6]; H2O, 37° C., 4 hrs)?
**A.** 20 µg/mL

**Q.** And the “FC: Form change” value ([6]; H2O, 37° C., 4 hrs)?
**A.** No

**Q.** And the “S: Solubility” value ([6]; H2O, 37° C., 24 hrs)?
**A.** 8 µg/mL

**Q.** What about the “FC: Form change” value ([6]; H2O, 37° C., 24 hrs) of the same molecule?
**A.** No

**Q.** And the “S: Solubility” value ([6]; SGF, 37° C., 1 hr)?
**A.** 83 µg/mL

**Q.** And the “FC: Form change” value ([6]; SGF, 37° C., 1 hr)?
**A.** No

**Q.** What about the “S: Solubility” value ([6]; SGF, 37° C., 2 hrs) of the same molecule?
**A.** 72 µg/mL

**Q.** What about the “FC: Form change” value ([6]; SGF, 37° C., 2 hrs) of the same molecule?
**A.** No

**Q.** What about the “S: Solubility” value ([6]; SGF, 37° C., 4 hrs) of the same molecule?
**A.** 75 µg/mL

**Q.** And the “FC: Form change” value ([6]; SGF, 37° C., 4 hrs)?
**A.** No

**Q.** What about the “S: Solubility” value ([6]; SGF, 37° C., 24 hrs) of the same molecule?
**A.** 78 µg/mL

**Q.** And the “FC: Form change” value ([6]; SGF, 37° C., 24 hrs)?
**A.** No

**Q.** What about the “form change of residual solids (XRPD) after solubility test” value ([6]; all the media (H2O, SGF, FaSSIF, FeSSIF), after 24 hrs) of the same molecule?
**A.** No form change

**Q.** And the “solubility compared with the other selected salts” value ([6]; all the media, 37° C.)?
**A.** lowest solubility
